Patent US20200140489A1 (priority 2013, published 2020)
Like-named read-outs stand apart in the source and are kept apart here. Positions of bridges follow the written chain, without caps; N, C: chain ends. Residues, ends and D or L forms follow the SMILES beside them.

Columns and labels:
AgrC-I [1] = molecular target: T1, AgrC-I (Staphylococcus aureus, UniProt O07911); assay type: cell-based, S. aureus; settings: read-out: AgrC-I IC50
AgrC-II [2] = molecular target: T2, AgrC-II (Staphylococcus aureus, UniProt O33587); assay type: cell-based, S. aureus; settings: for IC50: read-out: AgrC-II IC50, fluorescence reporter strain
T2 sequence (O33587 1-437): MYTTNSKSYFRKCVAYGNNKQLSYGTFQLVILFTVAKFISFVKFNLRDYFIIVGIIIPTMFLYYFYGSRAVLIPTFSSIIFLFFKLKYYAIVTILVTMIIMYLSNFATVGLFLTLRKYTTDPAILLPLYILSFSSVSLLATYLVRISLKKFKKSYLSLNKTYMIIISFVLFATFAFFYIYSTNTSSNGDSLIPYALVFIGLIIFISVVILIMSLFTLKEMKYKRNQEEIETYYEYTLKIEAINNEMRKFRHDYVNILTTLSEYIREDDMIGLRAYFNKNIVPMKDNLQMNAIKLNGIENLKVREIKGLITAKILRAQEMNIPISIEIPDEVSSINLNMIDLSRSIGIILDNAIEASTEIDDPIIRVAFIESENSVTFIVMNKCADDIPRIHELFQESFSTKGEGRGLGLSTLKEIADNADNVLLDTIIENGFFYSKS

AgrC-III [3] = molecular target: T3, AgrC-III (Staphylococcus aureus, UniProt O33590); assay type: cell-based, S. aureus; settings: read-out: AgrC-III IC50, fluorescence reporter strain
T3 sequence (O33590 1-425): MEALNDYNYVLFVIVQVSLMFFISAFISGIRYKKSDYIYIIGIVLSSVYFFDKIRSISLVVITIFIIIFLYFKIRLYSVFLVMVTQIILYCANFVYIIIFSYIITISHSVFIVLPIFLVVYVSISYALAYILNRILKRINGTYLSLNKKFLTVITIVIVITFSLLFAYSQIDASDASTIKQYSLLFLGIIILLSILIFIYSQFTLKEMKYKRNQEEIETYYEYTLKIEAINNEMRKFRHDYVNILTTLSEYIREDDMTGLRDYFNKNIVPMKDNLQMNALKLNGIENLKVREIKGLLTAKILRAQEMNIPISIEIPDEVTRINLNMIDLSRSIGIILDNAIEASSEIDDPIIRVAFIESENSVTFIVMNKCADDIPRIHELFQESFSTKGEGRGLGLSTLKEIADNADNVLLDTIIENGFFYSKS

AgrC-IV [4] = molecular target: T4, AgrC-IV (Staphylococcus aureus, UniProt Q309Z2); assay type: cell-based, S. aureus; settings: read-out: AgrC-IV IC50, fluorescence reporter strain
T4 sequence (Q309Z2 1-430): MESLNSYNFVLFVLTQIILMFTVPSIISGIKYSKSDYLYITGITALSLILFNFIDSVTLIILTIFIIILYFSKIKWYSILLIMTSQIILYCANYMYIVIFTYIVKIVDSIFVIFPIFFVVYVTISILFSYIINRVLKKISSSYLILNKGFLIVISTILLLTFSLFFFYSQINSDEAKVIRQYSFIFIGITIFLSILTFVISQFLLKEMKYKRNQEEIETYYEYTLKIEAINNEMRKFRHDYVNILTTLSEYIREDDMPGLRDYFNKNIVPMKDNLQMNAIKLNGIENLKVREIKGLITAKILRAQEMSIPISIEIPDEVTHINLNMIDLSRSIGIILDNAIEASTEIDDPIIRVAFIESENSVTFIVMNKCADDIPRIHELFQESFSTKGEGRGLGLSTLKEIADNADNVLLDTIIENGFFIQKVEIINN

AgrC-III [5] = molecular target: T3, AgrC-III; experiment: Hemolysis assay, wild-type group-III strain MN8, rabbit red blood cells
AgrC-I [6] = molecular target: T1, AgrC-I; experiment: Hemolysis assay, wild-type group-I strain RN6390B, rabbit red blood cells; settings: for IC50: read-out: AgrC-I IC50, hemolysis assay, 200 fM − 10 μM
AgrC-II [7] = molecular target: T2, AgrC-II; experiment: Hemolysis assay, wild-type group-II strain RN6923, rabbit red blood cells; settings: read-out: AgrC-II IC50, hemolysis assay, 200 fM − 10 μM
AgrC-IV [8] = molecular target: T4, AgrC-IV; experiment: Hemolysis assay, wild-type group-IV strain RN4850, rabbit red blood cells; settings: read-out: AgrC-IV IC50, hemolysis assay, 200 fM − 10 μM
[9] = test system: TSST-1 production in wild-type group-III S. aureus (MN8); assay type: cell-based
[10] = second-generation analogues, fluorescence reporter strain, 200 fM − 10 μM
[11] = second-generation analogues, 200 fM − 10 μM
[12] = read-out: AgrC-III IC50, selected second-generation analogues, 200 fM − 10 μM
[13] = selected second-generation analogues
[14] = AIPs tested over 200 fM − 10 μM or (b1) 2.5 pM − 10 μM, triplicate
[15] = read-out: AgrC-III IC50, 200 fM − 10 μM

T1 sequence (O07911 1-430): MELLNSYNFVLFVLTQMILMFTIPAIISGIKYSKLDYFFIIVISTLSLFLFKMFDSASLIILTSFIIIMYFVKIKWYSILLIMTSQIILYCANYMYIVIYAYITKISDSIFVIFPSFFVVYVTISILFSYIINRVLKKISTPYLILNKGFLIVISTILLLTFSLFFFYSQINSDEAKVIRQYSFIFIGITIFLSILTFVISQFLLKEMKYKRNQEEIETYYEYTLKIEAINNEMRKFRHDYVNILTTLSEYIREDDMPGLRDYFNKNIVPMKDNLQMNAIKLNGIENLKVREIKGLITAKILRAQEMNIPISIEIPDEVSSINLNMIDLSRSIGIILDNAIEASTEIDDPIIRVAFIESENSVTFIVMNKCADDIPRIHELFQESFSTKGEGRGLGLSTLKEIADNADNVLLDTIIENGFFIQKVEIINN

Row | Compound | IC50 (AgrC-II [2]; [11]) [nM] | IC50 (AgrC-III [3]; [11]) [nM] | IC50 (AgrC-IV [4]; [11]) [nM] | IC50 (AgrC-III [5]; [12]) [nM] | IC50 (AgrC-I [6]; [13]) [nM] | IC50 (AgrC-II [7]; [13]) [nM] | IC50 (AgrC-IV [8]; [13]) [nM] | IC50 (AgrC-III [5]; [15]) [nM] | other results
1 | CC[C@H](C)[C@H](N)C(=O)N[C@@H](C)C(=O)N[C@H]1CSC(=O)[C@H](CC(C)C)NC(=O)[C@H](CC(C)C)NC(=O)[C@H](Cc2ccccc2)NC(=O)[C@H](C)NC1=O [AIP-III N2A/D4A, I-A-(C-A-F-L-L)] (H-IACAFLL; thioester 3-C) | 0.204 | 0.0657 | 0.0221 | 0.216 | 0.0362 | 0.0661 | 0.122 |  | IC50 (AgrC-I [1]; [10]): 0.331 nM
2 | CC[C@H](C)[C@@H]1NC(=O)[C@H](Cc2ccccc2)NC(=O)[C@H](Cc2ccc(O)cc2)NC(=O)[C@@H](NC(=O)[C@@H](NC(=O)[C@H](CO)NC(=O)[C@@H](N)Cc2ccc(O)cc2)[C@@H](C)O)CSC(=O)[C@H](CCSC)NC1=O [AIP-IV, Y-S-T-(C-Y-F-I-M), reference compound] (H-YSTCYFIM; thioester 4-C) |  |  |  |  |  |  |  | 1.49 | IC50 (AgrC-II [2]; [14]): 0.373 nM; IC50 (AgrC-III [3]; [14]): 0.46 nM; IC50 (AgrC-II [7]): 0.0897 nM
3 | CC[C@H](C)[C@@H]1NC(=O)[C@H](Cc2ccccc2)NC(=O)[C@H](C)NC(=O)[C@@H](NC(C)=O)CSC(=O)[C@H](CCSC)NC1=O [tAIP-I D2A, Ac-(C-A-F-I-M), reference compound] (Ac-CAFIM; thioester 1-C) |  |  |  |  |  |  |  | 0.853 | IC50 (AgrC-I [6]): 1.45 nM; IC50 (AgrC-II [7]): 2.5 nM; IC50 (AgrC-IV [8]): 0.361 nM
4 | CC(C)C[C@@H]1NC(=O)[C@H](Cc2ccccc2)NC(=O)[C@H](C)NC(=O)[C@@H](NC(=O)[C@H](CC(N)=O)NC(=O)[C@H](C)N)CSC(=O)[C@H](CC(C)C)NC1=O [AIP-III I1A/D4A, A-N-(C-A-F-L-L)] (H-ANCAFLL; thioester 3-C) | 2.35 | 0.28 | 0.101 | 0.551 | 0.0103 | 0.793 | 0.284 |  | IC50 (AgrC-I [1]; [10]): 0.328 nM; fold change against AgrC-II relative to AIP-III D4A (AgrC-II [2]; gfp reporter): < 5 fold; fold lower concentrations inhibiting hemolysis than AIP-III D4A (AgrC-I [6]; group-I): eight
5 | CC(=O)N[C@H]1CSC(=O)[C@H](CC(C)C)NC(=O)[C@H](CC(C)C)NC(=O)[C@H](Cc2ccccc2)NC(=O)[C@H](C)NC1=O [tAIP-III D2A, Ac-(C-A-F-L-L)] (Ac-CAFLL; thioester 1-C) | 0.9 |  |  | 0.197 | 0.332 | 0.711 | 0.306 |  | reduction of TSST-1 levels [9]: 80%
6 | CC(C)C[C@@H]1NC(=O)[C@H](CO)NC(=O)[C@H](CO)NC(=O)[C@@H](NC(=O)[C@H](C)NC(=O)[C@H](CC(N)=O)NC(=O)[C@@H](NC(=O)CN)C(C)C)CSC(=O)[C@H](Cc2ccccc2)NC1=O [AIP-II, G-V-N-A-(C-S-S-L-F), reference compound] (H-GVNACSSLF; thioester 5-C) |  |  |  |  |  |  |  | 3.59 | IC50 (AgrC-I [1]): 1.62 nM; IC50 (AgrC-III [3]; [14]): 0.532 nM; IC50 (AgrC-IV [4]; [14]): 0.396 nM; IC50 (AgrC-I [6]): 0.89 nM; IC50 (AgrC-IV [8]): 1.19 nM
7 | CC(=O)N[C@H]1CSC(=O)[C@H](CC(C)C)NC(=O)[C@H](CC(C)C)NC(=O)[C@H](Cc2ccc(O)cc2)NC(=O)[C@H](C)NC1=O [tAIP-III D2A/F3Y, Ac-(C-A-Y-L-L)] (Ac-CAYLL; thioester 1-C) | 1.15 | 0.387 | 0.0306 | 0.265 | 0.279 | 0.204 | 0.134 |  | IC50 (AgrC-I [1]): 0.279 nM
